Values quoted from earlier work in PMC8176454, “Synthesis and Assessment of Novel Probes for Imaging Tau Pathology in Transgenic Mouse and Rat Models” (ACS Chemical Neuroscience, 2021).

System: tau aggregates in P301S tau and GSK3-β X P301L tau (biGT) mice
Design: method as in PMID 26912432
Conditions: cited from earlier work

CNc1ccc(-c2ccc3cc(OCC(O)C[18F])ccc3n2)cc1 (stereo not shown) [[^18F]THK5117]
Binding to tau aggregates in two transgenic mouse models: bound to tau aggregates
